What all share (type): physicochemical
Series [1] is described as follows: Solubility of the compound in ethanol.
Series [2] can be described thus: Solubility of the compound in isopropanol.
A short description of series [3]: Solubility of the compound in DMSO.
Series [4] is described as follows: Solubility of the compound in chloroform.
The nature of series [5]: Solubility of the compound in trifluoroacetic acid.
Series [6] is described as follows: Solubility of the compound in CHCl3/TFA.
Series [7] can be described thus: Solubility of the compound in DMSO/TFA.

Structures are written as SMILES.

As to `O=C1NC(=O)C(C(=O)NNC(=O)Nc2ccc([N+](=O)[O-])cc2)C(=O)N1`, the solubility result is given as “Insoluble” in series [1]; “Insoluble” in series [2]; “Insoluble” in series [3]; “Insoluble” in series [4]; “Soluble” in series [5]; “Soluble” in series [6]. In addition, the solubility result in series [7] is “Soluble”.

For `CN1C(=O)NC(=O)C(C(=O)NNC(=O)Nc2ccc(Cl)c(Cl)c2)C1=O` (stereo not given), the solubility result in series [1], in series [2], in series [3], in series [4], in series [5] and in series [6] was “Insoluble” each time. In addition, in series [7], the solubility result was “Insoluble”.

In the case of `CN1C(=O)NC(=O)C(C(=O)NNC(=O)Nc2cccc(O)c2)C1=O` (stereo not given), the solubility result in series [1], in series [2], in series [3], in series [4], in series [5] and in series [6] was “Insoluble” in each case. Further, the solubility result in series [7] is on record as “Insoluble”.

Regarding `CN1C(=O)NC(=O)C(C(=O)NNC(=O)Nc2ccc(O)c([N+](=O)[O-])c2)C1=O` (stereo not given), the solubility entry in series [1], in series [2], in series [3], in series [4], in series [5] and in series [6] was “Insoluble” each time. In addition, the solubility result in series [7] is “Insoluble”.

For `CN1C(=O)NC(=O)C(C(=O)NNC(=O)Nc2ccccc2)C1=O` (stereo not given), the solubility entry in series [1], in series [2], in series [3], in series [4], in series [5] and in series [6] was “Insoluble” throughout. Moreover, the solubility entry in series [7] was “Insoluble”.

Take `CN1C(=O)C(C(=O)NNC(=O)Nc2ccccc2)C(=O)N(C)C1=O`: the solubility result in series [1], in series [2], in series [3], in series [4], in series [5] and in series [6] was “Insoluble” each time. Also, the solubility entry in series [7] is given as “Insoluble”.

In the case of `O=C1NC(=O)C(C(=O)NNC(=O)Nc2ccc(O)c([N+](=O)[O-])c2)C(=O)N1`, the solubility entry in series [1] is listed as “Insoluble”; in series [2], “Insoluble”; in series [3] it was “Insoluble”; in series [4], “Insoluble”; in series [5] it was “Soluble”; in series [6], “Soluble”. Further, the solubility result in series [7] is reported as “Soluble”.

Turning to `CN1C(=O)C(C(=O)NNC(=O)Nc2cccc(O)c2)C(=O)N(C)C1=O`, the solubility result in series [1], in series [2], in series [3], in series [4], in series [5] and in series [6] was “Insoluble” each time. Further, the solubility entry in series [7] was “Insoluble”.

`CN1C(=O)NC(=O)C(C(=O)NNC(=O)Nc2ccc(C#N)cc2)C1=O` (stereo not given): the solubility entry in series [1], in series [2], in series [3], in series [4], in series [5] and in series [6] was “Insoluble” in each case. Moreover, the solubility result in series [7] is on record as “Insoluble”.

On to `CN1C(=O)NC(=O)C(C(=O)NNC(=O)Nc2ccc(F)cc2)C1=O` (stereo not given), for which the solubility result in series [1], in series [2], in series [3], in series [4], in series [5] and in series [6] was “Insoluble” each time. In addition, the solubility entry in series [7] is given as “Insoluble”.

The values above are taken from ChEMBL document CHEMBL3862023, “Synthesis of N-aryl and N-arylcarbamoylamino derivatives of 1,3-diazinane-5-carboxamide and their activity against glioblastoma LN-229 cell line” (Bioorg Med Chem, 2016).
